Measurements from patent publication US20250099634A1, “METHOD OF TREATING CANCER” (Novartis AG, priority 2023, published 2025).

Tests used:
OCT2 = OCT2 (Homo sapiens, UniProt O15244)
[1] = NETTER-2 worst post-baseline hematology abnormalities based on CTC grades (Safety Set); type: in vivo, human
Description: The laboratory assessments require that blood samples for hematology and blood chemistry, and a urine sample for urinalysis are taken. Laboratory assessments will be performed at the investigational site.
Blood tests performed 4 weeks after any treatment cannot serve as baseline values for the next treatment.
All laboratory data will be listed by treatment group, subject, and visit/time and if normal ranges are available abnormalities will be flagged. Summary statistics will be provided by treatment and visit/time. Shift tables using the low/normal/high/(low and high) classification will be used to compare baseline to the worst on-treatment value.
Grading of laboratory values will be assigned programmatically as per NCI Common Terminology Criteria for Adverse Events (CTCAE) version 5.0 or current version. The calculation of CTCAE grades will be based on the observed laboratory values only, clinical assessments will not be taken into account.
The following summaries will be generated separately for hematology, and biochemistry tests: • 1. Listing of all laboratory data with values flagged to show the corresponding CTCAE grades if applicable and the classifications relative to the laboratory normal ranges • 2. For laboratory tests where grades are defined by CTCAE, • 3. Worst post-baseline CTCAE grade (regardless of the baseline status). Each subject will be counted only once for the worst grade observed post-baseline. • 4. Shift tables using CTCAE grades to compare baseline to the worst on-treatment value • 5. For laboratory tests where grades are not defined by CTCAE, • 6. Shift tables using the low/normal/high/(low and high) classification to compare baseline to the worst on-treatment value.

BCRP = BCRP (Homo sapiens, UniProt Q9UNQ0); details: not told
Sequence of BCRP (Q9UNQ0 whole entry): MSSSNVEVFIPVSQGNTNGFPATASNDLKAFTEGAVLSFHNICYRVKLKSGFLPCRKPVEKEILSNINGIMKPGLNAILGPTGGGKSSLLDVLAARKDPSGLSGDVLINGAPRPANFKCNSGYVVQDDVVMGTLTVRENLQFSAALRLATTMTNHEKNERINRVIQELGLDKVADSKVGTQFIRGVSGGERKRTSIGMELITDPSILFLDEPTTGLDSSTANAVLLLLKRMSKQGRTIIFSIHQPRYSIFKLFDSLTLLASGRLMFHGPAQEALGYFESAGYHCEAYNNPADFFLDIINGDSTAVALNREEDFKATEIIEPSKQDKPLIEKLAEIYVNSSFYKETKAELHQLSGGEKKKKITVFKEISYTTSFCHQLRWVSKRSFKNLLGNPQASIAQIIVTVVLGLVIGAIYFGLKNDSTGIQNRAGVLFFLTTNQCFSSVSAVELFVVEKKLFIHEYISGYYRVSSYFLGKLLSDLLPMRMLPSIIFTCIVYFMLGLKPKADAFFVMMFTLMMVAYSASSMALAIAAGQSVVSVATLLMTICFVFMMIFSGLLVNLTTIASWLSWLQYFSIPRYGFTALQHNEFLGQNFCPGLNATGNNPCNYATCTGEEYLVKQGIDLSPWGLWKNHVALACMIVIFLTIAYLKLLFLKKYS

OAT3 = OAT3 (Homo sapiens, UniProt Q8TCC7)
Sequence of OAT3 (Q8TCC7 whole entry): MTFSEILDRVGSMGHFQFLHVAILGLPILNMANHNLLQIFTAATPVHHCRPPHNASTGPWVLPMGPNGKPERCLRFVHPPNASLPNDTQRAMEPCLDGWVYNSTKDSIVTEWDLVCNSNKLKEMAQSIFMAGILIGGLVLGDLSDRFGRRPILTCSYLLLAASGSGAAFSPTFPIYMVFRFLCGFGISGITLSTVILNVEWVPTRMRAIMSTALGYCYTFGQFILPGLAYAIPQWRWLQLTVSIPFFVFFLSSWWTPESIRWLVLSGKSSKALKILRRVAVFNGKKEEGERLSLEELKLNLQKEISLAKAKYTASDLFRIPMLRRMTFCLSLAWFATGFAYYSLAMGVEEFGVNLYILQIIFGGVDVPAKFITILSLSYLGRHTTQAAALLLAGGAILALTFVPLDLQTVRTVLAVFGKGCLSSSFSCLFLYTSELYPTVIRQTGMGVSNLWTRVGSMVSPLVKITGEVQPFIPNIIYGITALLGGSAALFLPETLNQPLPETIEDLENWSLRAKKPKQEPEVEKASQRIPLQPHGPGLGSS

midgut carcinoid tumors = details: cited from earlier work
[2] = tested on: Grade 2 and Grade 3 advanced GEP-NET; assay: NETTER-2 best overall response, ORR and DCR, central review using RECIST 1.1; type: in vivo, human; details: for ORR: central assessment
Description: Objective Response Rate (ORR) will be calculated as the rate of patients with a best overall response of partial response (PR) or complete response (CR). Response duration will be calculated from the time of initial response until documented tumor progression. The Duration of Response (DOR) is defined as the time from initially meeting the criteria for response (CR or PR) until the time of progression by RECIST or death due to underlying disease. DOR will be reported descriptively for each group without comparison between groups.
Overall response rate (ORR) is defined as the proportion of subjects with best overall response (BOR) of complete response (CR) or partial response (PR), as per central review and according to RECIST 1.1.
ORR will be calculated based on the FAS and according to the ITT principle. ORR and its 95% confidence interval will be presented by treatment group. The Cochran-Mantel-Haenszel chi-square test, stratified by the randomization stratification factors, will be used to compare ORR between the two treatment groups, at the 1-sided 2.5% level of significance. As a supportive analysis, ORR as per local review will be presented by treatment group, along with 95% confidence intervals.
More precisely, it counts the presence of at least one confirmed CR or confirmed PR or SD. The DCR will be calculated based on FAS according to the ITT principle. DCR and its 95% confidence interval will be presented by treatment group. The Cochrane-Mantel-Haenszel chi-square test, stratified by the randomization stratification factors, will be used to compare DCR between the two treatment groups, at the one-sided 2.5% level of significance. The p-value to be generated using the Cochrane-Mantel-Haenszel chi-square test is considered nominal, and not to be considered confirmatory as it is not part of the testing strategy. The SAP will advise on how to proceed in case of few events in any stratum.

[3] = tested on: somatostatin receptor-positive tumors, including GEP-NETS; details: 1,214 patients; cited from earlier work
[4] = NETTER-2 subject disposition: discontinuation of randomized treatment phase (Full Analysis Set); type: in vivo, human
Description: The discontinuation of either study treatments in both arms (Lutathera or octreotide long-acting) is not a reason for patient's withdrawal either from the clinical/tumor assessments until tumor progression, or for early study termination. However, in case of a patient's withdrawal from the clinical/tumor assessments or early study termination (based on either the patient's or the Investigator's decision), patients will undergo all exams scheduled for the End of Treatment (EOT) visit.
The Full Analysis Set (FAS) comprises all subjects to whom study treatment has been assigned by randomization. According to the intent to treat principle, subjects will be analyzed according to the treatment and strata they have been assigned to during the randomization procedure.

[5] = cited from earlier work
OCT1 = OCT1 (Homo sapiens, UniProt O15245)
Sequence of OCT1 (O15245 whole entry): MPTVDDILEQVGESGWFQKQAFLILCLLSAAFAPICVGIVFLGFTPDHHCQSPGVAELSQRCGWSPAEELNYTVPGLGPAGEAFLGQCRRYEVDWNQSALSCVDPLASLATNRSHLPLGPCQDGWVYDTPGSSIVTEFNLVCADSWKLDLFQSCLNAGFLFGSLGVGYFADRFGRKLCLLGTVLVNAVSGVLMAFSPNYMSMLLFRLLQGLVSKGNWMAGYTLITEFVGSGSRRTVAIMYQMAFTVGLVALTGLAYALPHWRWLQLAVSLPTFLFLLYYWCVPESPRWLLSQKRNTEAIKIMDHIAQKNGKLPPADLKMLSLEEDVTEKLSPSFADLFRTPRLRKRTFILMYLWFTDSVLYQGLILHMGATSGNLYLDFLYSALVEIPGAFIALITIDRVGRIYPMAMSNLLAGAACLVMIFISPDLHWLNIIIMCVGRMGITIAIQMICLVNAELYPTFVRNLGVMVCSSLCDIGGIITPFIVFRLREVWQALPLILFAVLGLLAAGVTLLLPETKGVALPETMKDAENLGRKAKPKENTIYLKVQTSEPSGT

serum inhibin B = details: human, in vivo; cited from earlier work
OATP1B3 = OATP1B3 (Homo sapiens, UniProt Q9NPD5)
Sequence of OATP1B3 (Q9NPD5 whole entry): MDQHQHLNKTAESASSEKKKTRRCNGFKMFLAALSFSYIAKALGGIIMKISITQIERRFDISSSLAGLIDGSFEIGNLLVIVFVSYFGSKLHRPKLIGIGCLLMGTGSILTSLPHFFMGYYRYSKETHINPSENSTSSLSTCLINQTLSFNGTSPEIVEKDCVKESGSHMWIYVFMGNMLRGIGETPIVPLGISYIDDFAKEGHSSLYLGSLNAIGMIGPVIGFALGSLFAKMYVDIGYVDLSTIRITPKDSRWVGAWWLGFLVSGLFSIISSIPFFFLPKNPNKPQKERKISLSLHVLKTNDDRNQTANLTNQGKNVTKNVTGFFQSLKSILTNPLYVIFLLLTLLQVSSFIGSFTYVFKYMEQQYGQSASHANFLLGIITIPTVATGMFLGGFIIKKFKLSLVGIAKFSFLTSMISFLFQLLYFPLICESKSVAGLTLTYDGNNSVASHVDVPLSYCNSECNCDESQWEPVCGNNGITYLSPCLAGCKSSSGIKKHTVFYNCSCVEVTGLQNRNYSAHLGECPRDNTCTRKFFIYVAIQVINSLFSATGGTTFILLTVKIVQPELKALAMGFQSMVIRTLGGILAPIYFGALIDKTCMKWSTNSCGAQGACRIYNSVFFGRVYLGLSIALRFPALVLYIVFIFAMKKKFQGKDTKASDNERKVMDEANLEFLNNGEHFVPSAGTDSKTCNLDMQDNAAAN

metastatic midgut NET = details: 30 mg/month, cited from earlier work
[6] = healthy subjects, 20 mg and 60 mg; cited from earlier work
[7] = All grades (CTCAE v5.0), randomized treatment period, Safety Set
[8] = central review, Full Analysis Set
[9] = Grade 3/4 (CTCAE v5.0), randomized treatment period, Safety Set
[10] = NETTER-1 control arm, high dose (60 mg)

Sequence of OCT2 (O15244 whole entry): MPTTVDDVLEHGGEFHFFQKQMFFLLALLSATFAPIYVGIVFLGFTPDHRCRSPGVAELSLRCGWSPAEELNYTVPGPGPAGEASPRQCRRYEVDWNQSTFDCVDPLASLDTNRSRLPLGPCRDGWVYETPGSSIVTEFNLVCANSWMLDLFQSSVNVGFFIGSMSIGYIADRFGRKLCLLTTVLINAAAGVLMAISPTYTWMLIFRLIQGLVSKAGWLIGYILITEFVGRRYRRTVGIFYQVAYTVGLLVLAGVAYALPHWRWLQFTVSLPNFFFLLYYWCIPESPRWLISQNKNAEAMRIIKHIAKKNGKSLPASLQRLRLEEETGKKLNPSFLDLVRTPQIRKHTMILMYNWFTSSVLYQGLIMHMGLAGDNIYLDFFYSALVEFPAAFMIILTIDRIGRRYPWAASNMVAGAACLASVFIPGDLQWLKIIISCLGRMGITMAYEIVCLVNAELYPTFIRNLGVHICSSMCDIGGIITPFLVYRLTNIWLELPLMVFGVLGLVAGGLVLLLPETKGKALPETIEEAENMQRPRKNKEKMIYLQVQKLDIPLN

Structure (SMILES): C[C@@H](O)[C@H](NC(=O)[C@@H]1CSSC[C@H](NC(=O)[C@@H](Cc2ccccc2)NC(=O)CN2CCN(CC(=O)[O-])CCN(CC(=O)[O-])CCN(CC(=O)[O-])CC2)C(=O)N[C@@H](Cc2ccc(O)cc2)C(=O)N[C@H](Cc2c[nH]c3ccccc23)C(=O)N[C@@H](CCCCN)C(=O)N[C@@H]([C@@H](C)O)C(=O)N1)C(=O)O.[177Lu+3] [Lutathera, ^177Lu-DOTA^0-Tyr^3-Octreotate]
- interaction with OCT2 (OCT2): absence of specific interaction
- Worst post-baseline abnormality: Neutrophils (10E9/L)-Decrease [1, 7]: 55 (37.4) n (%)
- Grade 3/4 hematologic lab abnormality: lymphocytes decrease ([1]; in vivo): 38.1%
- Worst post-baseline abnormality: Leukocytes (10E9/L)-Increase ([1]; in vivo): 0 n (%)
- Worst post-baseline abnormality: Neutrophils (10E9/L)-Decrease ([1]; in vivo): 5 (3.4) n (%)
- interaction with BCRP (BCRP): absence of specific interaction
- interaction with OAT3 (OAT3): absence of specific interaction
- risk reduction in likelihood of progression or death event (midgut carcinoid tumors; NETTER-1, Lutathera versus 60 mg octreotide long-acting): 79%
- confirmed events (disease progressions RECIST 1.1 centrally assessed or deaths) (midgut carcinoid tumors; NETTER-1): 21
- median PFS (midgut carcinoid tumors; NETTER-1): not yet been reached
- Best Overall Response: Complete Response (CR) [2, 8]: 8 (5.3) n (%)
- Best Overall Response: Non-CR/Non-PD [2, 8]: 0 n (%)
- Best Overall Response: Partial Response (PR) [2, 8]: 57 (37.7) n (%)
- Best Overall Response: Progressive Disease (PD) [2, 8]: 8 (5.3) n (%)
- Best Overall Response: Unknown [2, 8]: 6 (4.0) n (%)
- Disease Control Rate (DCR: CR+PR+SD+Non-CR/Non-PD) [2, 8]: 137 (90.7) n (%)
- Overall Response Rate (ORR: CR + PR) [2, 8]: 65 (43.0) n (%)
- Complete or partial tumor remission [3]: 39%
- Reason for End of Randomized Treatment Phase: Death ([4]; Full Analysis Set): 4 (2.6) n (%)
- Reason for End of Randomized Treatment Phase: Progressive Disease ([4]; Full Analysis Set): 42 (27.8) n (%)
- Reason for End of Randomized Treatment Phase: Adverse Event ([4]; human, in vivo): 8 (5.3) n (%)
- Treatment discontinuation due to adverse event ([4]; human, in vivo): 5.3%
- discontinuation for progressive disease ([4]; randomized period): 27.8%
- Clinically significant myelosuppression ([5]; in vivo): less than 10%
- grade 3 or 4 lymphopenia ([5]; in vivo): 9%
- grade 3 or 4 neutropenia ([5]; in vivo): 1%
- grade 3 or 4 thrombocytopenia ([5]; in vivo): 2%
- renal toxicities within the period of observation ([5]; in vivo): no evidence of renal toxicities
- interaction with OCT1 (OCT1): absence of specific interaction
- mean serum inhibin B levels (serum inhibin B): significant decrease
- interaction with OATP1B3 (OATP1B3): absence of specific interaction

Structure (SMILES): C[C@@H](O)[C@@H]1NC(=O)[C@H](CCCCN)NC(=O)[C@@H](Cc2c[nH]c3ccccc23)NC(=O)[C@H](Cc2ccccc2)NC(=O)[C@@H](NC(=O)[C@H](N)Cc2ccccc2)CSSC[C@@H](C(=O)N[C@H](CO)[C@@H](C)O)NC1=O [Octreotide LAR, octreotide]
- time to tumor progression (metastatic midgut NET; 42 patients): 14.3 months
- patients achieving stable disease (metastatic midgut NET): 67%
- Worst post-baseline abnormality: Hemoglobin (g/L)-Decrease [1, 7]: 42 (57.5) n (%)
- Worst post-baseline abnormality: Hemoglobin (g/L)-Increase [1, 7]: 2 (2.7) n (%)
- Worst post-baseline abnormality: Leukocytes (10E9/L)-Decrease [1, 7]: 15 (20.5) n (%)
- Worst post-baseline abnormality: Leukocytes (10E9/L)-Increase [1, 7]: 0 n (%)
- Worst post-baseline abnormality: Lymphocytes (10E9/L)-Decrease [1, 7]: 45 (61.6) n (%)
- Worst post-baseline abnormality: Lymphocytes (10E9/L)-Increase [1, 7]: 3 (4.1) n (%)
- Worst post-baseline abnormality: Neutrophils (10E9/L)-Decrease [1, 7]: 9 (12.3) n (%)
- Worst post-baseline abnormality: Platelets (10E9/L)-Decrease [1, 7]: 15 (20.5) n (%)
- Worst post-baseline abnormality: Hemoglobin (g/L)-Decrease [1, 9]: 2 (2.7) n (%)
- Worst post-baseline abnormality: Hemoglobin (g/L)-Increase [1, 9]: 0 n (%)
- Worst post-baseline abnormality: Leukocytes (10E9/L)-Decrease [1, 9]: 0 n (%)
- Worst post-baseline abnormality: Leukocytes (10E9/L)-Increase [1, 9]: 0 n (%)
- Worst post-baseline abnormality: Lymphocytes (10E9/L)-Decrease [1, 9]: 2 (2.7) n (%)
- Worst post-baseline abnormality: Lymphocytes (10E9/L)-Increase [1, 9]: 0 n (%)
- Worst post-baseline abnormality: Neutrophils (10E9/L)-Decrease [1, 9]: 0 n (%)
- Worst post-baseline abnormality: Platelets (10E9/L)-Decrease [1, 9]: 0 n (%)
- Grade 3/4 hematologic lab abnormality: lymphocytes decrease ([1]; randomized treatment period): 2.7%
- confirmed events (disease progressions RECIST 1.1 centrally assessed or deaths) (midgut carcinoid tumors; NETTER-1): 70
- median PFS (midgut carcinoid tumors; NETTER-1): 8.5 months
- median time free from relapse (midgut carcinoid tumors; [10]): 8.4 months
- ORR ([2]; listed as High-dose Octreotide): 9.3%
- ORR ([2]; listed as high-dose Octreotide): 9.3% (3.8%, 18.3%) for Lutathera vs. high-dose
- Best Overall Response: Complete Response (CR) [2, 8]: 0 n (%)
- Best Overall Response: Non-CR/Non-PD [2, 8]: 1 (1.3) n (%)
- Best Overall Response: Partial Response (PR) [2, 8]: 7 (9.3) n (%)
- Best Overall Response: Progressive Disease (PD) [2, 8]: 14 (18.7) n (%)
- Best Overall Response: Unknown [2, 8]: 11 (14.7) n (%)
- Overall Response Rate (ORR: CR + PR) [2, 8]: 7 (9.3) n (%)
- plasma exposure vs dose [6]: dose-proportional
- Reason for End of Randomized Treatment Phase: Adverse Event ([4]; Full Analysis Set): 1 (1.3) n (%)
- Reason for End of Randomized Treatment Phase: Death ([4]; Full Analysis Set): 4 (5.3) n (%)
- Reason for End of Randomized Treatment Phase: Progressive Disease ([4]; Full Analysis Set): 44 (58.7) n (%)
- Treatment discontinuation due to adverse event ([4]; randomized period): 1.3%
- discontinuation for progressive disease ([4]; randomized period): 58.7%
- side effects [5, 10]: without notable side effects
